In patent US20250136543A1, “8-[(2-HYDROXYNAPHTHALEN-1-YL)DIAZENYL]NAPHTHALENE-1,3-DISULFONIC ACID AS AN ANTIOXIDANT COMPOUND” (KING FAISAL UNIVERSITY, priority 2023, published 2025):

Test: DPPH radical scavenging antioxidant test
Assay type: biochemical
Conditions: 517 nm; for Inhibition (radical scavenging inhibition): 0.2 mL DPPH (0.75 mM), compound 3 μM in ethanol, 30 min incubation in the dark
Description: The antioxidant properties of the 8-[(2-hydroxynaphthalen-1-yl)diazenyl]naphthalene-1,3-disulfonic acid were studied by adding 0.2 mL DPPH (0.75 mM)) to compound 8-[(2-hydroxynaphthalen-1-yl)diazenyl]naphthalene-1,3-disulfonic acid (III) (3 μM) in ethanol. After 30 min of incubation in the dark, the absorbance was read against a blank at 517 nm. Ascorbic acid (vitamin C) was used as standard antioxidants (positive control). A blank sample was prepared by 0.2 ml of DPPH in 3 ml ethanol. A negative control sample was run using ethanol instead of the sample. The radical scavenging inhibition was calculated using the following equation: […]
The antioxidant activity for the synthesized compound is listed in Table 1, using Vitamin C as a reference.

SMILES | Inhibition (radical scavenging inhibition) | antioxidant potential compared to vitamin C (DPPH in vitro test, vitamin C as positive control)
O=S(=O)(O)c1cc(S(=O)(=O)O)c2c(/N=N/c3c(O)ccc4ccccc34)cccc2c1 [Product III, 8-[(2-hydroxynaphthalen-1-yl)diazenyl]naphthalene-1,3-disulfonic acid] | 54% | high potential as an antioxidant compared to vitamin C
O=C1O[C@H]([C@@H](O)CO)C(O)=C1O [vit c, Ascorbic acid, reference compound] | 74% | –
